Source: US12139492B2 (Endotarget Inc., priority 2021, dated 2024)

Experiments:
JeKo-1 cells = experiment: Antiproliferative effect, MTS cell viability assay, JeKo-1 cells; format: cell-based; conditions: Homo sapiens; JeKo-1 mantle cell lymphoma cells; read-out: IC50 (anti-proliferation) JeKO-1 cells
Method in brief: (§1)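 Tested at six concentrations (0 to 10 μM in tenfold steps), 72 h; viability by MTS, A490.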

Mino cells = experiment: Antiproliferative effect, MTS cell viability assay, Mino cells; format: cell-based; conditions: Homo sapiens, MINO, Mino mantle cell lymphoma cells; read-out: IC50 (anti-proliferation) Mino cells
Method in brief: as §1

BTK [1] = target: T1, BTK (Homo sapiens, UniProt Q06187); experiment: BTK degradation, DC50 and Dmax of Table 1 (cell line not given); format: cell-based; parameters: endogenous in cells; conditions: for DC50: concentration giving 50% reduction of BTK expression level
BTK [2] = target: T1, BTK; experiment: Degradation of BTK protein in Namalwa cells (Western blot; DC50, Dmax); conditions: for DC50: cell line not given
[3] = read-out: DC50 (BTK degradation), concentration giving 50% reduction of BTK expression level
[4] = read-out: Dmax (BTK degradation)

T1 sequence (Q06187 whole entry): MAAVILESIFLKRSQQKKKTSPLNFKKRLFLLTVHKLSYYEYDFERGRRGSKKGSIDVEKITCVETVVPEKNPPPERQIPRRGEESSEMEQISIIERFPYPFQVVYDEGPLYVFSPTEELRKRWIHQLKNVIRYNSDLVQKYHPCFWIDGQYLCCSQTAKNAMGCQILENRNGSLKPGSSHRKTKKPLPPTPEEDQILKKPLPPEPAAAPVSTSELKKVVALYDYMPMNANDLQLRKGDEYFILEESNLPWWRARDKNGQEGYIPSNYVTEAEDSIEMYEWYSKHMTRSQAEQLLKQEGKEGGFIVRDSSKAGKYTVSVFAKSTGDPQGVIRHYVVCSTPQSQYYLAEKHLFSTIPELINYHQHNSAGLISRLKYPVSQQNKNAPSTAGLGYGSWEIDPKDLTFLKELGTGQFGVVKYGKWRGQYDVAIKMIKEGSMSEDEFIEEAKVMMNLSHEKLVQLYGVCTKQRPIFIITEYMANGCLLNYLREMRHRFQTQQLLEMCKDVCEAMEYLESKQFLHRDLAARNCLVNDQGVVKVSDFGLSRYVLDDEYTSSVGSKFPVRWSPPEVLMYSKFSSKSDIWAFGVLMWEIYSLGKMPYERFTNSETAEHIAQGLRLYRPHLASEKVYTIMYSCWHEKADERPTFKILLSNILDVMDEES

Dmax (BTK [1]) | DC50 (BTK [1]) | Dmax (BTK [2]) | DC50 (BTK [2]; BTK degradation) | DC50 (BTK [2]; [3]) | Dmax (BTK [2]; [4]) | Structure (SMILES) | IC50 (JeKo-1 cells) | IC50 (Mino cells)
> 75% | 10 to 50 nM | – | – | – | – | Nc1ncnc2c1c(-c1ccc(Oc3ccccc3)cc1)nn2[C@@H]1CCCN(C2CCN(C(=O)N3CCC(CCCN4CCN(c5ccc6c(c5)CN(C5CCC(=O)NC5=O)C6=O)CC4)CC3)CC2)C1 (stereo partly drawn) [Compound 194, 3-(5-(4-(3-(1-((R)-3-(4-amino-3-(4-phenoxyphenyl)-1H-pyrazolo[3,4-d]pyrimidin-1-yl)-[1,4′-bipiperidine]-1′-carbonyl)piperidin-4-yl)propyl)piperazin-1-yl)-1-oxoisoindolin-2-yl)piperidine-2,6-dione] | 1 to 10 µM | 1 to 10 µM
> 75% | > 50 nM | – | – | – | – | Nc1ncnc2c1c(-c1ccc(Oc3ccccc3)cc1)nn2C1CCN(C(=O)N2CCN(CCCN3CCC(c4ccc5c(c4)C(=O)N(C4CCC(=O)NC4=O)C5=O)CC3)CC2)CC1 (stereo not shown) [Compound 123, 5-(1-(3-(4-(4-(4-amino-3-(4-phenoxyphenyl)-1H-pyrazolo[3,4-d]pyrimidin-1-yl)piperidine-1-carbonyl)piperazin-1-yl)propyl)piperidin-4-yl)-2-(2,6-dioxopiperidin-3-yl)isoindoline-1,3-dione] | 1 to 10 µM | 1 to 10 µM
> 90% | 10 to 50 nM | – | – | – | – | Nc1ncnc2c1c(-c1ccc(Oc3ccccc3)cc1)nn2[C@@H]1CCCN(C2CCN(C(=O)N3CCN(CCC4CCN(c5ccc6c(c5)C(=O)N(C5CCC(=O)NC5=O)C6=O)CC4)CC3)CC2)C1 (stereo partly drawn) [Compound 177, 5-(4-(2-(4-((R)-3-(4-amino-3-(4-phenoxyphenyl)-1H-pyrazolo[3,4-d]pyrimidin-1-yl)-[1,4′-bipiperidine]-1′-carbonyl)piperazin-1-yl)ethyl)piperidin-1-yl)-2-(2,6-dioxopiperidin-3-yl)isoindoline-1,3-dione] | 1 to 10 µM | 1 to 10 µM
> 50% | > 50 nM | – | – | – | – | Nc1ncnc2c1c(-c1ccc(Oc3ccccc3)cc1)nn2[C@@H]1CCCN(C2CCN(CCCC3CCN(c4ccc5c(c4)C(=O)N(C4CCC(=O)NC4=O)C5=O)CC3)CC2)C1 (stereo partly drawn) [Compound 155, 5-(4-(3-((R)-3-(4-amino-3-(4-phenoxyphenyl)-1H-pyrazolo[3,4-d]pyrimidin-1-yl)-[1,4′-bipiperidin]-1′-yl)propyl)piperidin-1-yl)-2-(2,6-dioxopiperidin-3-yl)isoindoline-1,3-dione] | > 10 µM | > 10 µM
> 75% | 10 to 50 nM | – | – | – | – | Nc1ncnc2c1c(-c1ccc(Oc3ccccc3)cc1)nn2[C@@H]1CCCN(C2CCN(C(=O)N3CCN(CCN4CCC(c5ccc6c(c5)CN(C5CCC(=O)NC5=O)C6=O)CC4)CC3)CC2)C1 (stereo partly drawn) [Compound 180, 3-(5-(1-(2-(4-((R)-3-(4-amino-3-(4-phenoxyphenyl)-1H-pyrazolo[3,4-d]pyrimidin-1-yl)-[1,4′-bipiperidine]-1′-carbonyl)piperazin-1-yl)ethyl)piperidin-4-yl)-1-oxoisoindolin-2-yl)piperidine-2,6-dione] | > 10 µM | 1 to 10 µM
> 75% | 10 to 50 nM | – | – | – | – | Nc1ncnc2c1c(-c1ccc(Oc3ccccc3)cc1)nn2[C@@H]1CCCN(C2CCN(CCN3CCN(c4ccc5c(c4)CN(C4CCC(=O)NC4=O)C5=O)CC3)CC2)C1 (stereo partly drawn) [Compound 148, 3-(5-(4-(2-((R)-3-(4-amino-3-(4-phenoxyphenyl)-1H-pyrazolo[3,4-d]pyrimidin-1-yl)-[1,4′-bipiperidin]-1′-yl)ethyl)piperazin-1-yl)-1-oxoisoindolin-2-yl)piperidine-2,6-dione] | > 10 µM | 1 to 10 µM
> 75% | > 50 nM | – | – | – | – | Nc1ncnc2c1c(-c1ccc(Oc3ccccc3)cc1)nn2[C@@H]1CCCN(C2CCN(CCCN3CCC(c4ccc5c(c4)CN(C4CCC(=O)NC4=O)C5=O)CC3)CC2)C1 (stereo partly drawn) [Compound 154, 3-(5-(1-(3-((R)-3-(4-amino-3-(4-phenoxyphenyl)-1H-pyrazolo[3,4-d]pyrimidin-1-yl)-[1,4′-bipiperidin]-1′-yl)propyl)piperidin-4-yl)-1-oxoisoindolin-2-yl)piperidine-2,6-dione] | > 10 µM | > 10 µM
> 50% | > 50 nM | – | – | – | – | Nc1ncnc2c1c(-c1ccc(Oc3ccccc3)cc1)nn2[C@@H]1CCCN(C(=O)N2CCN(c3ccc4c(c3)CN(C3CCC(=O)NC3=O)C4=O)CC2)C1 (stereo partly drawn) [Compound 46, 3-(5-(4-((R)-3-(4-amino-3-(4-phenoxyphenyl)-1H-pyrazolo[3,4-d]pyrimidin-1-yl)piperidine-1-carbonyl)piperazin-1-yl)-1-oxoisoindolin-2-yl)piperidine-2,6-dione] | > 10 µM | > 10 µM
> 75% | 10 to 50 nM | – | – | – | – | Nc1ncnc2c1c(-c1ccc(Oc3ccccc3)cc1)nn2C1CCCN(CCOCCOCCN2CCC(c3ccc4c(c3)C(=O)N(C3CCC(=O)NC3=O)C4=O)CC2)C1 (stereo not shown) [Compound 13, 5-(1-(2-(2-(2-(3-(4-amino-3-(4-phenoxyphenyl)-1H-pyrazolo[3,4-d]pyrimidin-1-yl)piperidin-1-yl)ethoxy)ethoxy)ethyl)piperidin-4-yl)-2-(2,6-dioxopiperidin-3-yl)isoindoline-1,3-dione] | 1 to 10 µM | 1 to 10 µM
> 75% | > 50 nM | – | – | – | – | Nc1ncnc2c1c(-c1ccc(Oc3ccccc3)cc1)nn2[C@@H]1CCCN(C(=O)N2CCC(CCCN3CCC(c4ccc5c(c4)CN(C4CCC(=O)NC4=O)C5=O)CC3)CC2)C1 (stereo partly drawn) [Compound 116, 3-(5-(1-(3-(1-((R)-3-(4-amino-3-(4-phenoxyphenyl)-1H-pyrazolo[3,4-d]pyrimidin-1-yl)piperidine-1-carbonyl)piperidin-4-yl)propyl)piperidin-4-yl)-1-oxoisoindolin-2-yl)piperidine-2,6-dione] | > 10 µM | > 10 µM
– | – | > 75% | 10 to 50 nM | – | – | NC(=O)c1c(-c2ccc(Oc3ccccc3)cc2)nn2c1NCCC2C1CCN(C2CCN(CCC3CCN(c4ccc5c(c4)CN(C4CCC(=O)NC4=O)C5=O)CC3)CC2)CC1 (stereo not shown) [Compound 310, 7-(1′-(2-(1-(2-(2,6-dioxopiperidin-3-yl)-1-oxoisoindolin-5-yl)piperidin-4-yl)ethyl)-[1,4′-bipiperidin]-4-yl)-2-(4-phenoxyphenyl)-4,5,6,7-tetrahydropyrazolo[1,5-a]pyrimidine-3-carboxamide] | > 10 µM | > 10 µM
– | – | > 75% | 10 to 50 nM | – | – | NC(=O)c1c(-c2ccc(Oc3ccccc3)cc2)nn2c1NCC[C@H]2C1CCN(C(=O)N2CCN(CCC3CCN(c4ccc5c(c4)CN(C4CCC(=O)NC4=O)C5=O)CC3)CC2)CC1 (stereo partly drawn) [Compound 300, (7S)-7-(1-(4-(2-(1-(2-(2,6-dioxopiperidin-3-yl)-1-oxoisoindolin-5-yl)piperidin-4-yl)ethyl)piperazine-1-carbonyl)piperidin-4-yl)-2-(4-phenoxyphenyl)-4,5,6,7-tetrahydropyrazolo[1,5-a]pyrimidine-3-carboxamide] | 1 to 10 µM | 1 to 10 µM
– | – | > 50% | > 50 nM | – | – | NC(=O)c1c(-c2ccc(Oc3ccccc3)cc2)nn2c1NCCC2C1CCN(C2CCN(C(=O)N3CCN(Cc4ccc5c(c4)CN(C4CCC(=O)NC4=O)C5=O)CC3)CC2)CC1 (stereo not shown) [Compound 340, 7-(1′-(4-((2-(2,6-dioxopiperidin-3-yl)-1-oxoisoindolin-5-yl)methyl)piperazine-1-carbonyl)-[1,4′-bipiperidin]-4-yl)-2-(4-phenoxyphenyl)-4,5,6,7-tetrahydropyrazolo[1,5-a]pyrimidine-3-carboxamide] | > 10 µM | > 10 µM
– | – | – | – | < 10 nM | > 90% | NC(=O)c1c(-c2ccc(Oc3ccccc3)cc2)nn2c1NCC[C@H]2C1CCN(CC2CCN(C(=O)N3CCC(CN4CCN(c5ccc6c(c5)CN(C5CCC(=O)NC5=O)C6=O)CC4)CC3)CC2)CC1 (stereo partly drawn) [Compound 410, (7S)-7-(1-((1-(4-((4-(2-(2,6-dioxopiperidin-3-yl)-1-oxoisoindolin-5-yl)piperazin-1-yl)methyl)piperidine-1-carbonyl)piperidin-4-yl)methyl)piperidin-4-yl)-2-(4-phenoxyphenyl)-4,5,6,7-tetrahydropyrazolo[1,5-a]pyrimidine-3-carboxamide] | 1 to 10 µM | 1 to 10 µM
– | – | – | – | < 10 nM | > 75% | Nc1ncnc2c1c(-c1ccc(Oc3ccccc3)cc1)nn2C1CCN(CCN2CCC(CN3CCC(c4ccc(N5CCC(=O)NC5=O)cc4)CC3)C2)CC1 (stereo not shown) [Compound 548, 1-(4-(1-((1-(2-(4-(4-amino-3-(4-phenoxyphenyl)-1H-pyrazolo[3,4-d]pyrimidin-1-yl)piperidin-1-yl)ethyl)pyrrolidin-3-yl)methyl)piperidin-4-yl)phenyl)dihydropyrimidine-2,4(1H,3H)-dione] | < 1 µM | < 1 µM
– | – | – | – | 10 to 50 nM | > 75% | Nc1ncnc2c1c(-c1ccc(Oc3ccccc3)cc1)nn2C1CCN(CCN2CCC(CN3CCN(c4ccc5c(c4)CN(C4CCC(=O)NC4=O)C5=O)CC3)C2)CC1 (stereo not shown) [Compound 456, 3-(5-(4-((1-(2-(4-(4-amino-3-(4-phenoxyphenyl)-1H-pyrazolo[3,4-d]pyrimidin-1-yl)piperidin-1-yl)ethyl)pyrrolidin-3-yl)methyl)piperazin-1-yl)-1-oxoisoindolin-2-yl)piperidine-2,6-dione] | 1 to 10 µM | 1 to 10 µM
